Experiment [1] is described as follows: Additional evaluations: expert rating of hair switches for frizz, clean feel and greasy feel. The conditions noted are these: non-aqueous compositions, Tables 9 and 10. As for the experimental part: […] The switch is kept at high humidity (above 85%) for 2 hours. Then, ten experts are asked to rate each hair switch in terms of frizz, clean feel, and greasy feel, based on a 5 point scale, 5 being the highest and 1 being the lowest rating.
Additional non-aqueous leave-on treatment compositions are prepared (Tables 9 and 10) according to the procedure described above, which are used to treat hair switches using the procedure described above (amount of 0.10 g of composition per g of hair). The switch is kept at high humidity (above 85%) for 2 hours. Then, ten experts are asked to rate each hair switch in terms of frizz, clean feel and greasy feel, based on a 5 point scale, 5 being the highest and 1 being the lowest rating.

Experiment [2] is described as follows: Dynamic Vapor Sorption (DVS) % water reduction of treated hair. As for the experimental part:
The % water reduction is calculated as follows:
% Water reduction=[(B−A)×100]/B

Where [3] appears, read: Class I materials, 1% wt/vol, hair 0% RH versus 90% RH, versus control hair.
[4] abbreviates: Class II materials, hair 0% RH versus 90% RH, versus control hair.

Regarding `O=C(O)c1ccc(O)cc1O` [2,4-Dihydroxybenzoic acid], in experiment [1], the “Results of hair switch rating in words (frizz protection, clean feel, greasy feel)” value (shortened to “Results of hair switch rating in words”) is “provide fizz protection with clean feel and without greasy feel negative”. Moreover, the “% Water reduction” value in experiment [2] (setting [3]) came out at 30%.
Turning to `CCCCCCCCC(CO)CCCCCC` (stereo not shown) [2-Hexyl-1-decanol], the “Results of hair switch rating in words” value in experiment [1] was “provide frizz protection with clean feel and without greasy feel negative”. Besides, the “% Water reduction” value in experiment [2] (setting [4]) turned out to be 11%.
On to `O=C(OCCO)c1ccccc1O` [2-Hydroxyethyl salicylate], for which the “Results of hair switch rating in words” value in experiment [1] was “provide frizz protection with clean feel and without greasy feel negative”. Moreover, the “% Water reduction” value in experiment [2] (setting [4]) was 10%.
Turning to `O=C(O)c1ccc(O)c(O)c1` [3,4-Dihydroxybenzoic acid], the “% Water reduction” value in experiment [2] (setting [3]) was determined as 20%.
Take `O=C(O)c1cccc(O)c1` [3-Hydroxybenzoic Acid]: the “% Water reduction” value in experiment [2] (setting [3]) is on record as 20%.
Still for that read-out and setting: the result for `Nc1ccc(O)cc1` [4-Aminophenol] reads 10%.
Consider `O=S(=O)(O)c1ccc(O)cc1` [4-Hydroxybenzenesulphonic acid], for which the “Results of hair switch rating in words” value in experiment [1] was “provide fizz protection with clean feel and without greasy feel negative”.
In the case of `O=C(O)c1cc(Cl)ccc1O` [5-Chlorosalicylic acid], the “Results of hair switch rating in words” value in experiment [1] is “provide fizz protection with clean feel and without greasy feel negative”.
Turning to `CCOC(=O)c1cc(O)c(O)c(O)c1` [Ethyl gallate], in experiment [2] (setting [4]), the “% Water reduction” value came to 17%.
Turning to `CCCCC/C=C\C/C=C\CCCCCCCC(=O)OCC` [Ethyl linoleate], the “% Water reduction” value in experiment [2] (setting [4]) was 8%.
Take `CCCCCCCC/C=C\CCCCCCCC(=O)OCC(O)CO` (stereo not shown) [Glyceryl monooleate]: the “% Water reduction” value in experiment [2] (setting [4]) is reported as 5%.
Turning to `CC(C)C(=O)O` [Isobutyric acid], the “% Water reduction” value in experiment [2] (setting [4]) is given as 5%.
Consider `CCCCCCCCCCCCCC(=O)OC(C)C` [Isopropyl myristate], for which the “% Water reduction” value in experiment [2] (setting [4]) was determined as 12%.
On to `CC(C)CCCCCCCCCCCCCCCOC(=O)CCCCCCCCCCCCCCC(C)C` [Isostearyl isostearate], for which the “Results of hair switch rating in words” value in experiment [1] is “provide frizz protection with clean feel and without greasy feel negative”. Moreover, in experiment [2] (setting [4]), the “% Water reduction” value turned out to be 11%.
Regarding `CCCCCCCC/C=C\CCCCCCCC(=O)O` [Oleic Acid], the “% Water reduction” value in experiment [2] (setting [4]) was determined as 14%.
Turning to `C/C(=C\CO)CCC[C@H](C)CCC[C@H](C)CCCC(C)C` [Phytol], the “% Water reduction” value in experiment [2] (setting [4]) turned out to be 14%.
Take `CCCCCC[C@@H](O)C/C=C\CCCCCCCC(=O)O` [Ricinoleic acid]: in experiment [2] (setting [4]), the “% Water reduction” value was 8.8%.
For the compound `O=C(O)c1ccccc1O` [Salicylic acid], the “Results of hair switch rating in words” value in experiment [1] is “provide fizz protection with clean feel and without greasy feel negative”. Further, the “% Water reduction” value in experiment [2] (Table 6, 1% salicylic acid in ethanol:water (50:50), final pH 3.2 (column pH 3)) worked out at 30%; in experiment [2] (Table 6, 1% salicylic acid in ethanol:water (50:50), final pH 4.2) it was 27%; in experiment [2] (Table 6, 1% salicylic acid in ethanol:water (50:50), final pH 7), 22%; in experiment [2] (Table 6, 1% salicylic acid in ethanol:water (50:50), final pH 10) it was 15%.
On to `COc1cc(/C=C/C(=O)O)ccc1O` [Trans-Ferulic Acid], for which, in experiment [2] (setting [3]), the “% Water reduction” value was determined as 6%.
For Sorbitan caprylate, the “% Water reduction” value in experiment [2] (setting [4]) worked out at 11%.

These data come from US20180289605A1, “NON-AQUEOUS COMPOSITION FOR HAIR FRIZZ REDUCTION” (The Procter & Gamble Company, priority 2017, published 2018).
